Data as given in patent US9840488B2, “Carbon monoxide releasing molecules and associated methods” (Utah State University, priority 2015, dated 2017).
≈ marks a conversion by molar mass, not a printed value. Entries after “also recorded” stand apart in the source; their conditions may differ. Read-outs that look alike come from different tables or passages of the source.

Columns and labels:
[1] = assay type: physicochemical; settings: for quantum yield Φ of CO-release reaction / eq. CO released: aerobic CH3CN; for eq. CO released: average of three trials
Procedure: ^1H and ^13C{^1H} NMR spectra (in ppm) were collected using JEOL ECX-300 MHz spectrometer and are referenced to the residual solvent peak in CDCl3 (^1H: 7.26 (singlet) ppm; ^13C 77.16 (singlet) ppm) or DMSO-d6 (^1H: 2.50 ppm (quintet)). J values are given in Hz. IR spectra were collected using a Shimadzu FTIR-8400 as potassium bromide pellets. UV-vis spectra were recorded at ambient temperature using a Hewlett-Packard 8453A diode array spectrophotometer. Fluorescence emission spectra were collected using a Shimadzu RF-530XPC spectrometer in the range of 400-800 nm, with the excitation wavelength corresponding to the absorption maxima of the molecules. The excitation and emission slit widths were set at 1.5 nm for all molecules. Mass spectral data was collected at the Mass Spectrometry Facility, University of California, Riverside. ESI/APCI mass spectra were recorded on an Agilent LCTOF (2006) with a Windows XP based operating system. Elemental analyses were performed by Atlantic Microlab, Inc., Norcross, Ga., using a PE2400 automatic analyzer or at Robertson Microlit Laboratories, Ledgewood, N.J. using a Perkin Elmer CHN Analyzer Model 2400, Series II. […] Quantum yields were determined using potassium ferrioxalate or potassium reinekate as standards to measure photon flux.^[36] Carbon monoxide was quantified as previously described.^[37] […]
A solution of 5 in CD3CN (˜3 mM) was prepared in air under minimal red light and placed in an NMR tube. The NMR tube was then covered with foil, placed in a photo reactor, and irradiated using 419 nm lamps for 24 hours.
A solution of 5 in CD3CN (˜3 mM) was prepared under N2 in a glove box and placed in an NMR tube. The NMR tube was then placed in a photo reactor and irradiated using 419 nm lamps for 24 hours. […]

[2] = Solubility and solution stability
[3] = tested on: S. aureus (ATCC 33591-MRSA); assay: Minimum inhibitory concentration, blue light vs dark; assay type: cell-based; parameters: key to Minimum inhibitory concentration (MIC): †: No inhibitory effect against bacterial strain
[4] = molecular target: T1, bovine serum albumin (BSA) (Bos taurus, UniProt P02769); assay: BSA binding by fluorescence quenching, competitive binding and docking
T1 sequence (P02769 25-607): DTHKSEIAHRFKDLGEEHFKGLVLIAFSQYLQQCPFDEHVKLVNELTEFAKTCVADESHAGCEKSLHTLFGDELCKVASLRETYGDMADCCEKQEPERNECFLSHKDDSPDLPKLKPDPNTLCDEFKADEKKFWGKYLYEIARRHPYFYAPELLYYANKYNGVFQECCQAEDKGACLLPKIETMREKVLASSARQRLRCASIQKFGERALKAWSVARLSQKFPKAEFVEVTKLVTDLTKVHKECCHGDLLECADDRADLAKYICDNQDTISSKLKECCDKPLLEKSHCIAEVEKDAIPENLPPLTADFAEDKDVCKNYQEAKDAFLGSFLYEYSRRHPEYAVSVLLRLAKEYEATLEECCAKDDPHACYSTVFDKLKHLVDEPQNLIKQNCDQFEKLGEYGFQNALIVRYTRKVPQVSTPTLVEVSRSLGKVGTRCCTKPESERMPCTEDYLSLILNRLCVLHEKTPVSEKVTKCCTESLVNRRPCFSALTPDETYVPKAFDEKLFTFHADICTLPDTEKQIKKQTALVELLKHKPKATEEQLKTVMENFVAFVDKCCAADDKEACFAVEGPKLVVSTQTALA

[5] = tested on: Jurkat (JM) cells; assay: MTT cell viability assay, Jurkat cells; assay type: cell-based, human
Procedure: (§1) Jurkat (JM) cells were maintained as previously described by Shorey et al.^[39] A549 human adenocarcinoma cells (ATCC, Manassas, Va.) cells were grown in DMEM/Ham's F-12 1:1 mixture medium supplemented with 10% charcoal-stripped, heat-inactivated fetal bovine serum (FBS; Caisson Laboratories, Logan, Utah) in a humidified incubator at 37° C. with 5% CO2. Cytotoxicity was determined by the colorimetric MTT [3-(4,5-dimethyl-2-thiazolyl)-2,5-diphenyl-2H-tetrazoluim bromide] assay as previously describe.^[40] Briefly, 2.1×10^3 cells/ml for A549 cells or 1×10^5 cells/ml for Jurkat cells. Test compounds were prepared in DMSO, then added to culture media for a maximum final DMSO concentration not greater than 0.1% (v/v). After addition of test compounds at concentrations ranging from 80 nM to 100 μM, cells were incubated for 24 h in the dark, then treated with MTT to assess cell viability as outlined previously.^[40] All experiments were independently replicated three times, and each experimental treatment was performed in triplicate.

[6] = tested on: A549 human adenocarcinoma cells; assay: MTT cell viability assay, A549 cells; assay type: cell-based
Procedure: as §1

[7] = tested on: E. coli (ATCC 25922); assay: Minimum inhibitory concentration, blue light vs dark; assay type: cell-based; parameters: key to Minimum inhibitory concentration (MIC): †: No inhibitory effect against bacterial strain
[8] = tested on: S. aureus (ATCC 25923); assay: as above; assay type: cell-based; parameters: key to Minimum inhibitory concentration (MIC): †: No inhibitory effect against bacterial strain
[9] = tested on: A549 cells; assay: Cellular uptake by fluorescence microscopy; assay type: cell-based, human
Procedure: A549 cells were maintained in culture as described above, then seeded into seeded into Millicell E-Z-Slide culture chambers (EMD Millipore, Billerica, Mass.) at an initial density of 7.5×10^4 cells/cm^2 and allowed to adhere to the chamber slides for 24 hr. The cells were then treated for 1 hr with the nuclear dye Hoechst 33342 (0.5% v/v) for 10 min, followed by three washes with plain culture media to remove residual dye. All of incubation and wash steps described below were performed in the dark with minimal light exposure. A 100 mM stock solution of compound 5 was prepared in DMSO and then diluted to a working concentration of 2 mM in culture media (DMEM/Ham's F-12). The compound 5 working stock was diluted again to a final concentration of 50 μM in the culture chamber media, and the cells were incubated for 1 hr. The culture chamber was then gently washed thrice with plain culture media. Cells were fixed with a 1:10 (v/v) solution of formaldehyde fixative (Immunochemistry Technologies, Bloomington, Minn.) and culture media for 5 min, then washed twice with plain culture media. Finally, cells were imaged using a Zeiss Axio Observer inverted microscope (Carl Zeiss Microscopy, Thornwood, N.Y.) equipped with fluorescence detection. Images were acquired using a 10× objective with excitation λ of 450-490 nm (BP 470/40 filter) and emission λ of 500-550 nm (BP 525/50 filter) for detection of compound 5 in A549 cells following 30 sec, 3 min or 10 min exposure to visible light. Also, for localization of the Hoechst dye, a single fluorescence image was acquired at excitation λ at 365 nm; emission λ of 420-470 nm (BP 445/50 filter). Acquired images were universally adjusted to enhance contrast levels (same settings for all acquired images for each detection channel) using Adobe Photoshop CS6 (Adobe, San Jose, Calif.).

[10] = molecular target: T1, bovine serum albumin (BSA); settings: literature value, cited from earlier work

3-acetate-2-phenyl-benzo[g]chromen-4-one [Compound 12]
stability to visible light relative to 5 [1]: significantly more stable

O=c1c(O)c(-c2ccccc2)oc2ccccc12 [3-hydroxyflavone, reference compound]
eq. CO generated ([1]; photoinduced reaction with O2, λirr=300 nm): 0.95 eq

O=c1c(O)c(-c2ccccc2)oc2cc3ccccc3cc12 [Compound 5, 3-Hydroxy-2-phenyl-benzo[g]chromen-4-one]
solubility in aqueous DMSO ([2]; 1:1 H2O:DMSO, 0.1% DMSO/RPMI cell culture media): soluble | solubility in organic solvents ([2]; CH3CN, CH2Cl2, CHCl3, DMSO): readily soluble | solution stability in the presence of ambient O2 ([2]; acetonitrile, 1:1 DMSO:H2O, or 0.1% DMSO:cell culture media (RPMI-1640; pH=7.4), protected from light): > 2 weeks | melting point: 208 to 210 °C | Minimum inhibitory concentration (MIC) ([3]; Dark Conditions): † | MIC ([3]; Staphylococcus aureus, Light Conditions (blue light)): 55.5 µg/mL (≈ 193 µM) | binding site on BSA ([4]; competitive binding with warfarin and ibuprofen, AutoDock Vina docking): site 1 (subdomain II A) | binding affinity to BSA ([4]; fluorescence quenching, single binding site): 3200 M⁻¹ | toxicity by MTT cell viability assay [5]: minimal toxicity | toxicity by MTT cell viability assay [6]: minimal toxicity | IC50 ([6]; Homo sapiens, 24 h in the dark, MTT): 41.5 µM | Minimum inhibitory concentration (MIC) ([7]; Dark Conditions): † | MIC ([7]; Escherichia coli, ATCC25922, Light Conditions (blue light)): 27.8 µg/mL (≈ 96.4 µM) | Minimum inhibitory concentration (MIC) ([8]; Dark Conditions): † | MIC ([8]; Staphylococcus aureus, ATCC25923, Light Conditions (blue light)): 39.4 µg/mL (≈ 137 µM) | dark control reaction ([1]; CD3CN in air, tube covered with foil, 419 nm lamps, 24 hours, 1H NMR): no reaction had occurred | anaerobic control reaction ([1]; CD3CN under N2, 419 nm lamps, 24 hours, 1H NMR): no reaction had occurred | quantum yield Φ of CO-release reaction ([1]; 419 nm irradiation): 0.007(3) | eq. CO released ([1]; 419 nm irradiation): 0.96(2) eq | decrease in the rate of light induced CO-release on binding to BSA ([1]; compound bound to BSA): two-fold | photoinduced CO-release reaction in other solvents ([1]; methanol and 1:1 H2O:DMSO, 1H NMR and GC head space gas analysis): same reaction occurs | cellular uptake / cell permeability ([9]; 50 μM, 1 hr incubation): cell permeable; also recorded: taken up by almost all cells | intracellular localization ([9]; 1 hr incubation): localized primarily to the cytoplasm | loss of green fluorescence in cells on exposure to visible light ([9]; ten minutes visible light): complete loss

O=C(Oc1cc2ccccc2cc1C(=O)O)c1ccccc1 [Compound 6, 3-(benzoyloxy)-2-naphthoic acid]
toxicity by MTT cell viability assay [5]: completely non-toxic | toxicity by MTT cell viability assay [6]: completely non-toxic

CCN(CC)c1ccc(-c2oc3cc4ccccc4cc3c(=O)c2O)cc1 [Compound 7, 2-(4-(diethylamino)phenyl)-3-hydroxy-4H-benzo[g]chromen-4-one]
melting point: 191 to 192 °C | quantum yield Φ of CO-release reaction ([1]; 419 nm irradiation): 0.006(1) | eq. CO released ([1]; 419 nm irradiation): 0.99(1) eq

Oc1c(-c2ccccc2)oc2cc3ccccc3cc2c1=S [Compound 8, 3-Hydroxy-2-phenyl-4H-benzo[g]chromene-4-thione]
quantum yield Φ of CO-release reaction ([1]; 419 nm irradiation): 0.426(3) | eq. CO released ([1]; 419 nm irradiation): 1.01(1) eq

CCN(CC)c1ccc(-c2oc3cc4ccccc4cc3c(=S)c2O)cc1 [Compound 9, 2-(4-(diethylamino)phenyl)-3-hydroxy-4H-benzo[g]chromene-4-thione]
quantum yield Φ of CO-release reaction ([1]; >546 nm irradiation): 0.20(1) | eq. CO released ([1]; >546 nm irradiation): 1.01(1) eq

COc1cccc2c1C(=O)c1c(O)c3c(c(O)c1C2=O)C[C@@](O)(C(=O)CO)C[C@@H]3O[C@H]1C[C@H](N)[C@H](O)[C@H](C)O1 [doxorubicin]
binding affinity to BSA [10]: 7300 M⁻¹

O=c1c(O)c(-c2ccc(O)c(O)c2)oc2cc(O)cc(O)c12 [quercetin]
binding affinity to BSA ([10]; unit not given): 3.65×10^7
